Data taken from PMC11009648, “Development of an orally bioavailable mSWI/SNF ATPase degrader and acquired mechanisms of resistance in prostate cancer” (Proceedings of the National Academy of Sciences of the …, 2024).
pIC50: −log10 of the molar value. Entries after “also recorded” stand apart in the source; their conditions may differ.

What was measured:
[1] = tested on: VCaP castration-resistant tumor model; assay: CRPC-VCaP xenograft efficacy study; format: in vivo
Protocol: Six-week-old CB17 (male) SCID mice were obtained from the breeding colony at the U-M. For all studies, tumors were measured two or three times per week using digital calipers, and tumor volumes were calculated using the formula (π/6) (L × W2), where L is length and W is width of the tumor. At study endpoint, mice were killed, and tumors were extracted and weighed. […] Once tumors grew to a palpable size (~400 mm^3), the mice were physically castrated. Once those tumors regained their precastration size, mice were then randomized and treated with either 15 mg/kg AU-24118 or vehicle by oral gavage 3 d per week with or without enzalutamide (10 mg/kg) by oral gavage 5 d per week for 4 wk.
IHC was performed on 4 µm formalin-fixed, paraffin-embedded tissue sections using BRG1 (SMARCA4), AR, FOXA1, ERG and C-Myc. The IHC process was performed on the Ventana ULTRA automated slide staining system using the Omnimap and Ultraview Universal DAB detection kit. The antibody details are provided in SI Appendix, Table S1. The following commercial kits from Roche-Ventana Medical System were used: Discovery CC1 (Cat No. 950-500), Discovery CC2 (Cat No. 950-123), OptiView Universal DAB Detection Kit (Cat No. 760-700), and OmniMap Universal DAB Detection Kit (Cat No. 760-149).
The TUNEL and In Situ Cell Death Detection Kits (TMR Red #12156792910; Roche Applied Science) were used to examine apoptosis, following the manufacturer’s instructions. Briefly, fixed sections were permeabilized with Triton X-100 and then washed in phosphate-buffered saline. Labeling was carried out at 37 °C for 60 min by addition of a reaction buffer that contained enzymes. A Zeiss Axiolmager M1 microscope was used to obtain images.

[2] = tested on: SMARCA4, PBRM1 and SMARCA2 in 22Rv1-AUR-3 xenografts; assay: 22Rv1-AUR-3 xenograft pharmacodynamics study; conditions: 5 d; AU-24118 15 mg/kg oral gavage three times per week; zosuquidar 40 mg/kg i.p.
Protocol: (§2) Lysates were prepared using radioimmunoprecipitation assay buffer (Thermo Fisher) with cOmpleteTM protease inhibitor cocktail tablets (Sigma-Aldrich) added. Total protein for each sample was determined using the DC Protein Assay (Bio-Rad) according to the manufacturer’s instructions. A standardized quantity of protein was resolved using NuPAGE Tris-Acetate Protein Gel (3 to 8%) (Thermo Fisher) or NuPAGE Bis-Tris Protein Gel (4 to 12%) (Thermo Fisher) and probed with primary antibodies as indicated. Following incubation with secondary antibodies conjugated with horseradish peroxidase, membranes were imaged on an Odyssey Fc Imager (LiCOR Biosciences).
For the 22Rv1-AUR-3 model, bilateral subcutaneous dorsal flank tumors were established by injecting 1 × 10^6 cells suspended in a 1:1 mixture of serum-free medium and Matrigel (BD Biosciences). Once tumors reached an average volume of 100 mm^3, mice were randomized and treated with either 60 mg/kg AU-15330 by retro-orbital vein injection 3 times every other day and with or without 10 mg/kg, 20 mg/kg, or 40 mg/kg of zosuquidar by intraperitoneal injection daily for 5 d per week. […] Animals harboring tumors approaching that size were immediately killed. All in vivo studies were approved by the U-M IACUC.

[3] = tested on: mutant forms of SMARCA4 in HEK293 cells; assay: Immunoblot of overexpressed flag-tagged mutant SMARCA4 in HEK293 cells; format: cell-based, human; conditions: 24 h treatment
Text: GFP-SMARCA4 (Addgene, 65391) was used for the SMARCA4 mutation clone. The pLVX-TetOne-Puro-hAXL (Addgene, 124797) backbone was used as a starting point prior to undergoing a series of modifications. The endogenous target gene was removed, and a multiple cloning site (MCS) was inserted downstream of the endogenous promoter. Custom gblocks containing Flag-tagged WT SMARCA4 were synthesized (Integrated DNA Technologies, IDT) and inserted into the MCS. Subsequently, custom gblocks containing SMARCA4-N1540S, SMARCA4-I1551del, or SMARCA4-F1485S were inserted to replace the respective portion of WT SMARCA4. Finally, the TRE3G promoter was replaced with hPGK.
HEK293 cells were seeded overnight and transfected with Lipofectamine 3,000 (Thermo Fisher) according to the manufacturer’s protocol. Media were changed 8 h post transfection and incubated for 48 h prior to conducting further analyses.

22Rv1 AUR-3 cells = assay: CellTiter-Glo cell viability assay in AU-15330-resistant 22Rv1 AUR-3 cells (ABCB1 overexpression); format: cell-based, human
Text: (§1) The rising importance of the mSWI/SNF complex as a therapeutic target and the success ([32], [33]) of developing next-generation PROTAC degraders targeting the mSWI/SNF complex prompted us to proactively study potential resistance mechanisms that cancer cells may develop in response to this class of compounds. To achieve this, we cultured 22Rv1 cells in either DMSO or a lethal dose of AU-15330 for 1 mo, refreshing the drug twice a week, until resistant cells emerged. Upon obtaining a population of resistant cells, we unbiasedly characterized the genomic and transcriptomic alterations using whole-exome sequencing and bulk RNA sequencing (RNA-seq), respectively (Fig. 3A).
Cells were seeded onto 96-well plates in appropriate culture media and allowed to adhere overnight prior to treatment. The next day, a nine-point serial dilution of the compounds was prepared and added to the plates. After treatment, the cells were then incubated for an additional 5 d. On the last day of treatment, the CellTiter-Glo cell viability assay (Promega) was then executed in accordance with the manufacturer’s guidelines. The signal (luminescence) from each well was determined using an Infinite M1000 Pro plate reader (Tecan). Relative viability was determined by dividing the signal from each well by the average of the control condition in each experiment. Finally, the data were analyzed and plotted using GraphPad Prism.

[4] = tested on: SMARCA4, SMARCA2 and PBRM1 in 22Rv1 AUR-2 cells; assay: Immunoblot of target degradation in 22Rv1 AUR-2 cells; format: cell-based, human; conditions: 4 h, AU-15330 1 µM, AU-24118 0.1 µM
Protocol: as §2

22Rv1 AUR-2 cells = assay: CellTiter-Glo cell viability assay in AU-15330-resistant 22Rv1 AUR-2 cells (SMARCA4 mutation); format: cell-based, human; conditions: dose-response (Fig. S4C)
Text: as §1
Cells were seeded onto 96-well plates in appropriate culture media and allowed to adhere overnight prior to treatment. The next day, a nine-point serial dilution of the compounds was prepared and added to the plates. After treatment, the cells were then incubated for an additional 5 d. […] The signal (luminescence) from each well was determined using an Infinite M1000 Pro plate reader (Tecan). Relative viability was determined by dividing the signal from each well by the average of the control condition in each experiment. Finally, the data were analyzed and plotted using GraphPad Prism.

[5] = after 5 d of treatment, 15 mg/kg

Nc1nnc(-c2ccccc2O)cc1-c1ccc(N2CCC(N3CCC(c4ccc(OC5CCC(=O)NC5=O)cc4)CC3)CC2)cc1 (centres unmarked) [AU-24118]
body weight changes ([1]; CRPC VCaP xenograft mice, throughout the treatments): no significant body weight changes
apoptosis in tumors (cleaved PARP, TUNEL) [1, 5]: induced apoptosis
downregulation of direct targets (SMARCA2, SMARCA4, PBRM1) and lineage proteins (AR, ERG, C-Myc, PSA) in tumors, Western blot [1, 5]: robust downregulation
tumor response ([1]; castrated CB17 SCID mice, enzalutamide 10 mg/kg oral gavage five times weekly, AU-24118 15 mg/kg oral gavage three times weekly): regression in every tumor; also recorded: regressed every tumor in the cohort
degradation of target proteins in tumors, immunoblot [2]: mild degradation of its target proteins
degradation of overexpressed mutant SMARCA4, immunoblot [3]: resistant to degradation
sensitivity of AUR-3 cells versus WT (22Rv1 AUR-3 cells; 22Rv1 AUR-3 cells (Fig. S5 E and F)): dramatically less sensitive
pIC50 (22Rv1 AUR-3 cells; Homo sapiens, 22Rv1, Fig. S5F, 22Rv1 AUR-3): 6.34
degradation of SMARCA2 and PBRM1, immunoblot [4]: able to degrade SMARCA2 and PBRM1
degradation of SMARCA4, immunoblot [4]: unable to degrade SMARCA4
ability to cause a decrease in cell viability (22Rv1 AUR-2 cells): unable
